Measured values as given in ChEMBL document CHEMBL1137428, “Synthesis and monoamine transporter binding properties of 2,3-cyclo analogues of 3beta-(4'-aminophenyl)-2beta-tropanemethanol” (J Med Chem, 2006).

Tests used:
[1] = biological target: Sodium-dependent serotonin transporter (Homo sapiens, UniProt P31645); assay: Displacement of [3H]paroxetine from human 5HTT
[2] = biological target: Sodium-dependent dopamine transporter (Homo sapiens, UniProt Q01959); assay: Displacement of [3H]WIN-35428 from human DAT
[3] = biological target: Sodium-dependent noradrenaline transporter (Homo sapiens, UniProt P23975); assay: Displacement of [3H]nisoxetine from human NET
Sequence of Sodium-dependent noradrenaline transporter (P23975 whole entry): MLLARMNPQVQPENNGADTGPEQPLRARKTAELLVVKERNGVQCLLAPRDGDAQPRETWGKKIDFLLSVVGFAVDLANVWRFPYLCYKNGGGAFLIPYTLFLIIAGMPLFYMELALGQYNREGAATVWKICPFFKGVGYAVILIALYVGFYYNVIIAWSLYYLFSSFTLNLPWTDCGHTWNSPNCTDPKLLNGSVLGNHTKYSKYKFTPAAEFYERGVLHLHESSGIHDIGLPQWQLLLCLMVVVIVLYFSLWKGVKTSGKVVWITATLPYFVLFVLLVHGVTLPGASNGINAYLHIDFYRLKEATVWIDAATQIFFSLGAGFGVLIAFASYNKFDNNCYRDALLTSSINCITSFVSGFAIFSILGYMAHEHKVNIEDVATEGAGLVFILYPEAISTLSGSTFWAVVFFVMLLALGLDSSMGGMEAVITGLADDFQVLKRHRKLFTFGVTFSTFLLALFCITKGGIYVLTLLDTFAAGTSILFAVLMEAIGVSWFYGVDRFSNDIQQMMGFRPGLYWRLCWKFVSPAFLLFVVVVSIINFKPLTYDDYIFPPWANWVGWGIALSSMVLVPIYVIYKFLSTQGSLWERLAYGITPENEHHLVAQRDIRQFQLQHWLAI

Sequence of Sodium-dependent dopamine transporter (Q01959 whole entry): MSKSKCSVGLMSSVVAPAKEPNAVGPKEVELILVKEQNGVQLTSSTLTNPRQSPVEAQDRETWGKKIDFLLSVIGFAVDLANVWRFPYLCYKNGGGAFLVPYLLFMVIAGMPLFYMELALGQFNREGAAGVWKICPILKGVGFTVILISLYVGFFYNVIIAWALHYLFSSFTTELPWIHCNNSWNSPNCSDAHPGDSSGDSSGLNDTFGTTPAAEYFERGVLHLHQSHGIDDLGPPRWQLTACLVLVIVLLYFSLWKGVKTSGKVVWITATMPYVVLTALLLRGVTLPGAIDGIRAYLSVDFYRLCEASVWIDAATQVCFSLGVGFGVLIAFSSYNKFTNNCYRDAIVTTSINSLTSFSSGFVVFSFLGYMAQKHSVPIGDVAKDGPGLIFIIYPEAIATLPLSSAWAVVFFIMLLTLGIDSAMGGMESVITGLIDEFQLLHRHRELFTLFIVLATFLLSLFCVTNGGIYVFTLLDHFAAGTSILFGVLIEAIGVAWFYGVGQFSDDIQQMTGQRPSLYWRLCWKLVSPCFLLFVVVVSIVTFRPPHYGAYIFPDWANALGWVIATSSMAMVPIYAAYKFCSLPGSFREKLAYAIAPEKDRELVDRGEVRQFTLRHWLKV
Sequence of Sodium-dependent serotonin transporter (P31645 whole entry): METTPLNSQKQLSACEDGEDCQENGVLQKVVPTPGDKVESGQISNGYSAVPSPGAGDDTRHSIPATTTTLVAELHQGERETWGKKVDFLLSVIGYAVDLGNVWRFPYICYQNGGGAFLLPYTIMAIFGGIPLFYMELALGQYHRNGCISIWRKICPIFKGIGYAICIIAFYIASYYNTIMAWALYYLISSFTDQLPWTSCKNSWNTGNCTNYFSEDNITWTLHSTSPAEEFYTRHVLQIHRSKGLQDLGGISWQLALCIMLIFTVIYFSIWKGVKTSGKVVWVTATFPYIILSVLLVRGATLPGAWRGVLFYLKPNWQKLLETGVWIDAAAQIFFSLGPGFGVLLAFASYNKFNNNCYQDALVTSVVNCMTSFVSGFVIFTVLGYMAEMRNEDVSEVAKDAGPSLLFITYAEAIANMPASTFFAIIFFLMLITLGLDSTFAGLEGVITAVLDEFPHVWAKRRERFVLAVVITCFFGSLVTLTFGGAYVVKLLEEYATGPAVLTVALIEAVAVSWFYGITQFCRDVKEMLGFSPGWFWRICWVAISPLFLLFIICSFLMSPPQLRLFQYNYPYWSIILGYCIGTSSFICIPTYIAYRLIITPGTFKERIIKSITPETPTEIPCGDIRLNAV

| Compound | IC50 [1] | Ki [1] | IC50 [2] | IC50 [3] | Ki [3] |
| --- | --- | --- | --- | --- | --- |
| CN1C2CCC1C1COC(=O)CCCCCCC(=O)Nc3ccc(cc3)C1C2 (stereo not given) | 2090 nM | 513 nM | 70 nM | 3040 nM | 1520 nM |
| CN1C2CCC1C1COC(=O)Cc3ccc(cc3)CC(=O)Nc3ccc(cc3)C1C2 (stereo not given) | – | > 2000 nM | > 2000 nM | – | > 2000 nM |
| CN1C2CCC1C1COC(=O)CCC(=O)CCC(=O)Nc3ccc(cc3)C1C2 (stereo not given) | 5010 nM | 1230 nM | 160 nM | 1400 nM | 710 nM |
| CN1C2CCC1C1COC(=O)CCCCC(=O)Nc3ccc(cc3)C1C2 (stereo not given) | > 2000 nM | – | 890 nM | – | > 2000 nM |
| CN1C(=O)CCCCCCCCC(=O)OCC2C(CC3CCC2N3C)c2ccc1cc2 (stereo not given) | – | > 2000 nM | 1920 nM | – | > 2000 nM |
| CN1CCCCCCCCCCCC(=O)OCC2C(CC3CCC2N3C)c2ccc1cc2 (stereo not given) | 450 nM | 110 nM | 490 nM | – | > 2000 nM |
| CN1C2CCC1C1COC(=O)CCCCCC(=O)Nc3ccc(cc3)C1C2 (stereo not given) | 200 nM | 50 nM | 3.8 nM | 40 nM | 20 nM |
| CN1C2CCC1C1COC(=O)CCCCCCCCC(=O)Nc3ccc(cc3)C1C2 (stereo not given) | 7.8 nM | 1.9 nM | 130 nM | 2800 nM | 1400 nM |
| CN1C2CCC1C1COC(=O)CCCCCCCC(=O)Nc3ccc(cc3)C1C2 (stereo not given) | – | > 2000 nM | 410 nM | – | > 2000 nM |
| CN1C2CCC1C1COC(=O)CCSCCC(=O)Nc3ccc(cc3)C1C2 (stereo not given) | 6730 nM | 1650 nM | 170 nM | 990 nM | 500 nM |
| CN1C2CCC1C1COC(=O)CCCCCCCCCCC(=O)Nc3ccc(cc3)C1C2 (stereo not given) | 1200 nM | 290 nM | 390 nM | 2320 nM | 1160 nM |
| CN1CCCCCCCCCC(=O)OCC2C(CC3CCC2N3C)c2ccc1cc2 (stereo not given) | 380 nM | 94 nM | 150 nM | 2130 nM | 1060 nM |
| CN1C2CCC1C1COC(=O)CCC3(CCC(=O)Nc4ccc(cc4)C1C2)c1ccccc1-c1ccccc13 (stereo not given) | > 2000 nM | – | 290 nM | 980 nM | 490 nM |
